Test results from patent publication US10709707B2, “Methods of treating ocular conditions” (Oyster Point Pharma, Inc., priority 2016, dated 2020).
Like-named read-outs stand apart in the source and are kept apart here.

Columns and labels:
[1] = tested on: subjects (intranasal administration); test: Panel of compounds administered intranasally: effect on tearing and discomfort response
Protocol: (§2) A panel of twenty compounds with various receptor binding profiles, including other nicotinic acetylcholine receptor (nAchR) agonists were tested. At the onset of the experiment, 50 microliters of a 0.01 mg/mL compound formulation was administered intranasally to three subjects.

[2] = tested on: paclitaxel-induced neuropathy, allodynia; test: Reversing symptoms of paclitaxel-induced neuropathy; type: in vivo, Rat; conditions: 100 mg/kg ip, 90 min before testing, Weeks 3 and 4 post-paclitaxel
behavioral sensitization = test: CNS safety pharmacology, behavioral sensitization by motor activity; type: in vivo, Rat: Sprague-Dawley; conditions: Compound 1 3, 10, 30 mg/kg po
[3] = tested on: subjects (intranasal administration); conditions: in vivo
Protocol: as §2

[4] = tested on: STZ rat model of diabetic neuropathy; test: Mechanical allodynia, STZ rat model of diabetic neuropathy; type: in vivo, Rat: Sprague-Dawley; conditions: insulin-treated group
formalin test = test: Analgesic effects, formalin test; type: in vivo, Mouse: CD-1; conditions: Compound 1 0.1, 1 and 10 mg/kg, Aspirin 100 mg/kg, Morphine 30 mg/kg; for analgesic effects after formalin injection, Day 1: po
[5] = distribution studies with [14C]-Compound 1 in Long Evans and Sprague-Dawley rat; type: in vivo
Excerpt: In male and female Sprague-Dawley rats, tissue distribution appeared similar to that of the Long Evans rat.

[6] = tested on: cryopreserved hepatocytes from rat, dog, monkey and human; test: 24-hour incubation in cryopreserved hepatocytes, species comparison; type: in vitro ADME
Excerpt: (§1) In human and monkey, the primary route of metabolism was through oxidation of the pyrrolidine ring (metabolite M02) before further metabolism via dioxidation to M1 or M3. In humans, parent accounted for 37% of extracellular radioactivity, M02 was 13.9%.M1 was 4.1% and M3 was 1.1%. In monkey, parent accounted for 14.2%, M02 was 5.0%, M1 was 5.8% and M3 was 29.4%. In the rat, the primary metabolite is an N-oxide-pyrimidine derivative (M9); it accounted for 71.9% of extracellular radioactivity while parent represented only 1.4%.

[7] = tested on: cryopreserved hepatocytes; test: 24-hour incubation in cryopreserved hepatocytes (human); type: in vitro ADME
Excerpt: as §1

[8] = tested on: cryopreserved hepatocytes; test: 24-hour incubation in cryopreserved hepatocytes (monkey); type: in vitro ADME
Excerpt: as §1

[9] = tested on: cryopreserved hepatocytes; test: 24-hour incubation in cryopreserved hepatocytes (rat); type: in vitro ADME
Excerpt: as §1

[10] = metabolism in vivo after single po dose in rats; conditions: rat, 30 mg/kg
Protocol: The main metabolite in plasma and urine was M9; in plasma from 6 to 24 hours post-dose an unknown polar metabolite (M13) accounted for a significant portion of total radioactivity. In plasma, parent accounted for 11.7% of AUC0-24 total radioactivity, M9 accounted for 20.9% and M13 accounted for 15.9%. In urine (the primary route of elimination) over a 24 hours period, parent accounted for 17.8% of total radioactivity, M9 accounted for 37.7% and M13 accounted for 0.7%.

[11] = excretion of radioactivity in monkey; type: in vivo; conditions: for administered radioactive dose recovered in cage wash / administered radioactive dose recovered in diet debris / administered radioactive dose recovered in feces / administered radioactive dose recovered in urine / administered radioactive dose recovered, total: 168-hour period
[12] = excretion of radioactivity in Sprague-Dawley rat; conditions: 30 mg/kg po
[13] = 50 microliters intranasally, three subjects, 0.01 mg/mL increased logarithmically up to 10 mg/mL

## CC[N+](CC)(CC(=O)Nc1c(C)cccc1C)Cc1ccccc1 [Denatonium]
[1]; [13]
  Causes Tearing: No
  Discomfort Response: No

## CNCCc1ccccn1 [Betahistine]
[1]; [13]
  Causes Tearing: No
  Discomfort Response: No

## NCC1(CC(=O)O)CCCCC1 [Gabapentin, reference compound]
[2]
  reversing allodynia: 100 mg/kg, was effective at reversing

## O=C(N[C@H]1CN2CCC1CC2)c1cc2ccoc2cn1 [PHA-543613]
[1]; [13]
  Causes Tearing: No
  Discomfort Response: No

## CC12CCC(CC1)C(C)(C)O2 [Eucaliptol]
[1]; [13]
  Causes Tearing: No
  Discomfort Response: No

## CN1CCCC1c1cccnc1 (stereo not drawn) [Nicotine]
Behavioral sensitization
  behavioral sensitization (motor activity): marked behavioral sensitization.
[3]
  Discomfort Response: Severe
[1]; [13]
  Causes Tearing: Yes

## insulin: insulin-treated group in the STZ rat model
[4]
  significant improvement in pain sensitivity: glucose levels but no

## Cc1cc([C@@H]2CCCN2C)on1 [ABT-418]
[1]; [13]
  Causes Tearing: Yes
  Discomfort Response: Moderate

## O=C(N[C@@H]1C2CCN(CC2)[C@H]1Cc1cccnc1)c1cc(F)cc(F)c1 [TC-6987]
[1]; [13]
  Causes Tearing: No
  Discomfort Response: No

## Cc1ccc(C(C)C)cc1O [Carvacrol]
[1]; [13]
  Causes Tearing: Yes
[1]; in vivo
  Discomfort Response: Severe

## CC(=O)Oc1ccccc1C(=O)O [Aspirin]
Formalin test
  analgesic effects after formalin injection, Day 1: mg/kg) and Aspirin at 100 mg/kg failed

## c1cnc2cc3c(cc2n1)[C@@H]1CNC[C@H]3C1 [Varenicline]
[1]; [13]
  Causes Tearing: Yes
  Discomfort Response: No

## COc1cc(CNC(=O)CCCC/C=C/C(C)C)ccc1O [Capsaicin]
[1]; [13]
  Causes Tearing: Yes
  Discomfort Response: Severe

## O=c1cccc2n1C[C@@H]1CNC[C@H]2C1 [Cytisine]
[3]
  Discomfort Response: Moderate
[1]; in vivo
  Causes Tearing: Partial

## CC12CCC(CC1=O)C2(C)C (stereo not drawn) [Camphor]
[1]; [13]
  Causes Tearing: No
  Discomfort Response: No

## C=CCc1ccc(O)c(OC)c1 [Eugenol]
[1]; [13]
  Causes Tearing: No
  Discomfort Response: No

## CC(C)=CCC/C(C)=C/CO [Geraniol]
[1]; [13]
  Causes Tearing: No
  Discomfort Response: No

## COc1ccc(/C=C2\CCCN=C2c2cccnc2)c(OC)c1 [GTS-21]
[1]; [13]
  Causes Tearing: Yes
  Discomfort Response: Severe

## CC1CCC(C(C)C)C(O)C1 (stereo not drawn) [Menthol]
[1]; [13]
  Causes Tearing: No
  Discomfort Response: No

## O=Cc1ccccc1 [Benzaldehyde]
[1]; [13]
  Causes Tearing: No
  Discomfort Response: No

## CC(C)=C1CC[C@@H](C)CC1=O [Pulegone]
[1]; [13]
  Causes Tearing: No
[1]; in vivo
  Discomfort Response: No

## CN1CC[C@]23c4c5ccc(O)c4O[C@H]2[C@@H](O)C=C[C@H]3[C@H]1C5 [Morphine]
Formalin test; once daily for 7 days po
  analgesic activity after formalin injection, Day 7: mg/kg) persisted on Day 7.
Formalin test
  analgesic effects after formalin injection, Day 1: mg/kg, po) produced a significant

## CCOc1cc(C=O)ccc1O [Ethylvanillin]
[1]; [13]
  Causes Tearing: No

## C(=C\[C@H]1CCNC1)/c1cncnc1 [[^14C]-Compound 1]
[5]; male Long Evans rat, 1 mg/kg po, 168 hours
  tissue with highest concentration of radioactivity at final sampling time: adrenal medulla
[5]; male and female Sprague-Dawley rats, 30 mg/kg po, 24 hours
  tissue with highest concentration of radioactivity at final sampling time: adrenal medulla
[6]
  species ranking of metabolism: rat>monkey>human>dog
[6]; depending on species
  extent of metabolism: slightly to moderately metabolized
[7]
  share of extracellular radioactivity: 37%
[8]
  share of extracellular radioactivity: 14.2%
[9]
  share of extracellular radioactivity: 1.4%
[10]
  extent of metabolism in vivo: extensively metabolized
  share of AUC0-24 total radioactivity in plasma: 11.7%
  share of total radioactivity in urine: 17.8%
[11]; 5 mg/kg iv infusion
  time by which nearly all recovered radioactivity was eliminated: ≤ 24 h
  administered radioactive dose recovered in cage wash: 7.6%
  administered radioactive dose recovered in diet debris: 6.9%
  administered radioactive dose recovered in feces: 7.6%
  administered radioactive dose recovered in urine: 70.7%
  administered radioactive dose recovered, total: 93.0%
[11]; 10 mg/kg po
  time by which nearly all recovered radioactivity was eliminated: ≤ 48 h
  administered radioactive dose recovered in cage wash: 10.2%
  administered radioactive dose recovered in diet debris: 6.6%
  administered radioactive dose recovered in feces: 12.8%
  administered radioactive dose recovered in urine: 60.7%
  administered radioactive dose recovered, total: 90.3%
[12]
  time by which nearly all recovered radioactivity was eliminated: ≤ 24 h
[12]; 168 hour period
  administered dose recovered in feces: 10.9%
  administered dose recovered in urine: 77.6%
[12]; 168 hour period post-dose
  administered dose recovered, total: 91.2%
